Data taken from patent US5162336A, “Tetrahydro-pyrido-indoles as cholecystokinin and gastrin antagonists” (Rhone-Poulenc Rorer Pharmaceuticals Inc., priority 1990, dated 1992).

Molecular target: T1, CCK-A receptor (Rattus norvegicus, UniProt P30551)
T1 construct: from tissue; host or cells: pancreas membranes of Sprague-Dawley rat
T1 sequence (P30551 1-444): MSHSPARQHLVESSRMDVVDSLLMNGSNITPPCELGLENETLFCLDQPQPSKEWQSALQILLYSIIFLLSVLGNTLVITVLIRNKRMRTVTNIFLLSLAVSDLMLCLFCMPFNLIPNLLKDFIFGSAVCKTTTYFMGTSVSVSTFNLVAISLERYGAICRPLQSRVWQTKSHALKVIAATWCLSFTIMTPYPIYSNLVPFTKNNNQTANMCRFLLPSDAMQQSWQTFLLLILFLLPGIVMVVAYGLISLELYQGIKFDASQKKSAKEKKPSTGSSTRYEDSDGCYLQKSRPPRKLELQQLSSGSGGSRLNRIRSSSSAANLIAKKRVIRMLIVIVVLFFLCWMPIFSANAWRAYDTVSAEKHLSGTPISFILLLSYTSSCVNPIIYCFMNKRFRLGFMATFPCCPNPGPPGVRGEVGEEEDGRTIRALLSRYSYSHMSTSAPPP
Experiment: CCK-A receptor binding assay (displacement of 3H-L-364,718 from rat pancreas membranes)
Parameters: species or system Sprague-Dawley rat
Conditions: 3H-L-364,718 0.2 nM, 37° C., 30 min, read-out: In vitro Binding Data IC50 CCK
Description: Washer Buffer (for use with Brandel Cell Harvester):
30 liters of 50 mM Tris, ph 7.7: Dissolve 181.7 g. Tris base in 4 1. deionized water at room temperature. Adjust pH to 7.7 with 6 N HCl and Q.S. to 30 1.
50 mM Tris-Cl, 5 mM MgCl2, 5 mM dithio-thretiol, 0.14 mg/ml bacitracin, and 2 mg/ml bovine serum albumin.
1 liter of 5X stock buffer:
30.28 g. Tris base per 800 ml D.I. water 5.09 g. MgCl2 6 H2 O, pH to 7.7 at room temperature with 6N HCl and Q.S. 1 liter, store at 4° C.
250 ml working buffer kept on ice:
50 ml of 5X stock buffer 0.1928 g. dithiothretiol (5 mM), 35 mg bacitracin (0.14 mg/ml), and 0.5 g. BSA (2mg/ml).
Unlabeled L-364,718(nonpeptide ligand):
Unlabeled L-364,718 (300 nM final concentration) is used to define nonspecific binding. A 3 mM solution is made in absolute ethanol and stored in a scintillation vial at -70° C. Aliquots are diluted 100-fold in the assay.
A Sprague-Dawley rat is sacrificed by asphyxiation with carbon dioxide and the pancreas removed. The tissue is immersed in cold wash buffer and carefully trimmed of fat, connective tissue, blood vessels, blotted and weighed. The tissue is homogenized in a Sorvall SS-34 centrifuge tube in 50 volumes of wash buffer using a Polytron at setting 7 for 15 seconds. The tissue is centrifuged (Sorvall SS-34) at 19,000 rpm for 10 min. The supernatant is poured off and the pellet resuspended in sufficient buffer to obtain a contraction of 40 mg tissue wet weight/ml. Separate aliquots (2,3ml) are placed in each of 8 centrifuge tubes and centrifuged as before. The supernatants are poured off and the pellets stored at -70° C. Stored pellets are sufficient for the assay of 160 tubes and are stable for 1-2 months.
During the assay the stored membranes are resuspended in 40 ml of assay buffer by scraping the pellet off the wall of the centrifuge tube and washing it into a teflon-glass homogenizer. Membranes are resuspended by 5 passes with the teflon pestle and the membranes stored on ice until ready for use.
Preparation of Compounds:
Compounds are prepared in DMSO (dimethyl sulfoxide) or in assay buffer. The majority of structures active as CCK antagonists generally require DMSO for complete solubility. Approximately 2-3 mg of compound is weighed directly into a 13×100 mm test tube and sufficient DMSO added to obtain a working stock solution at a concentration 100 fold greater than the highest concentration being tested in the assay. A total of 10 μl of each concentration of drug is added into a final volume of 1 ml to yield a 100 fold dilution of the, working stock solution. Control binding tubes ("totals and nonspecifics") are also treated with 10 μl DMSO.
^3 H-L-364,718 is obtained from New England Nuclear (Cat. #971) and is used as supplied. The final assay concentration of ^3 H-L-364,718 in assay buffer should be 0.2 nM in a final assay volume of 1 ml. ^3 H-L-364,718 (0.2 pmol) is added into the assay in a volume of 25 μl (8 nM working stock solution). The required dilution (usually>1000 fold) is obtained by dividing the working stock concentration into the concentration of the specific lot.
Samples are prepared in triplicate and a "total" (buffer addition) and "nonspecific" (300 nM unlabeled L-364,718) set of tubes included in each set of 24 tubes. The remaining 6 sets of triplicates are used either for screening or IC50 determinations. The order of addition is drugs-DMSO, buffer, unlabeled L-364,718, ^3 H-L-364,718, and to start the assay, membranes.
While tubes are incubating a shaking water bath at 37° C. for 30 min Brandel deposit/dispense filters are presoaked in wash buffer. Following the end of the incubation, sets of 24 tubes are rapidly washed with assay buffer as follows. Assay buffer is added to the incubation tubes to the height of the uppermost cross support in the standard Brandel test tube rack and the contents immediately aspirated. This process is repeated twice more, the filter removed, marked and the next set of 24 tubes processed. […]

| Compound | IC50 |
| --- | --- |
| CC(C)C[C@H](NC(=O)[C@H]1Cc2c([nH]c3ccccc23)CN1C(=O)Nc1ccc(Cl)c(Cl)c1)C(=O)NCC(N)=O [Example 28] | 9 µM |
| CC(C)C[C@H](NC(=O)[C@H]1Cc2c([nH]c3ccccc23)CN1)C(=O)N[C@@H](CC(=O)OCc1ccccc1)C(N)=O [Example 40] | 41 µM |
| Cc1cccc(NC(=O)N2Cc3[nH]c4ccccc4c3C[C@@H]2C(=O)N[C@@H](CC(C)C)C(=O)N[C@@H](Cc2ccccc2)C(N)=O)c1 [Example 42] | 4 µM |
| CCOC(=O)c1ccc(NC(=O)[C@H]2Cc3c([nH]c4ccccc34)CN2C(=O)Nc2cccc(C)c2)cc1 [Example 43] | 37 µM |
| CCCCCN(CCCCC)C(=O)[C@H](CC(=O)O)NC(=O)[C@H]1Cc2c([nH]c3ccccc23)CN1C(=O)Nc1cccc(C)c1 [Example 46, N-[(3R)-2-(3-methylphenylcarbamoyl)-1,2,3,4-tetrahydro-9H-pyrido[3,4-b]indole-3-carboxyl]-L-aspartic acid dipentyl amide] | 3.9 µM |
| Cc1cccc(NC(=O)N2Cc3[nH]c4ccccc4c3C[C@@H]2C(=O)N[C@@H](CC(C)C)C(=O)N[C@@H](CC(N)=O)C(=O)O)c1 [Example 50] | 92 µM |
| Cc1cccc(C(=O)N2Cc3[nH]c4ccccc4c3C[C@@H]2C(=O)N[C@@H](CC(C)C)C(=O)N[C@@H](CC(=O)O)C(N)=O)c1 [Example 54] | > 100 µM |
| CC(C)C[C@H](NC(=O)[C@H]1Cc2c([nH]c3ccccc23)CN1C(=O)Nc1ccc(Cl)cc1)C(=O)N[C@@H](CC(=O)O)C(N)=O [Example 55, N-[(3R)-2-(4-chlorophenylcarbamoyl)-1,2,3,4-tetrahydro-9H-pyrido[3,4-b]indole-3-carboxyl]-L-leucyl-L-asartic acid amide] | 48 µM |
| CC(C)C[C@H](NC(=O)[C@H]1Cc2c([nH]c3ccccc23)CN1C(=O)Nc1cc(Cl)cc(Cl)c1)C(=O)N[C@@H](CC(=O)O)C(N)=O [Example 59, N-[(3R)-2-(3,5-dichlorophenylcarbamoyl)-1,2,3,4-tetrahydro-9H-pyrido[3,4-b]indole-3-carboxyl]-L-leucyl-L-aspartic acid amide] | 34 µM |
| Cc1cc(C)cc(NC(=O)N2Cc3[nH]c4ccccc4c3C[C@@H]2C(=O)N[C@@H](CC(C)C)C(=O)N[C@@H](CC(=O)O)C(N)=O)c1 [Example 60, N-[(3R)-2-(3,5-dimethylphenylcarbamoyl)-1,2,3,4-tetrahydro-9H-pyrido[3,4-b]indole-3-carboxyl]-L-leucyl-L-aspartic acid amide] | 65 µM |
| COc1cccc(NC(=O)N2Cc3[nH]c4ccccc4c3C[C@@H]2C(=O)N[C@@H](CC(C)C)C(=O)N[C@@H](CC(=O)O)C(N)=O)c1 [Example 61] | > 100 µM |
| CC(C)C[C@H](NC(=O)[C@H]1Cc2c([nH]c3ccccc23)CN1C(=O)Nc1ccc2ccccc2c1)C(=O)N[C@@H](CC(=O)O)C(N)=O [Example 62] | 9.3 µM |
| CC(C)C[C@H](NC(=O)[C@H]1Cc2c([nH]c3ccccc23)CN1C(=O)Nc1cccc(C(F)(F)F)c1)C(=O)N[C@@H](CC(=O)O)C(N)=O [Example 63] | 86 µM |
| Cc1cccc(NC(=O)N2Cc3[nH]c4ccccc4c3C[C@@H]2C(=O)N[C@@H](COCc2ccccc2)C(=O)N[C@@H](CC(=O)O)C(N)=O)c1 [Example 64] | 29 µM |
| CC(C)C[C@H](NC(=O)[C@H]1Cc2c([nH]c3ccccc23)CN1C(=O)Nc1cccc(F)c1)C(=O)N[C@@H](CC(=O)O)C(N)=O [Example 65] | > 100 µM |
| CC(C)C[C@H](NC(=O)[C@H]1Cc2c([nH]c3ccccc23)CN1C(=O)Nc1ccc(Cl)c(Cl)c1)C(=O)N[C@@H](CC(=O)O)C(N)=O [Example 66] | 24 µM |

The next lines start with the values.

| IC50 | Compound |
| --- | --- |
| > 100 µM | Cc1cccc(NC(=O)N2Cc3[nH]c4ccccc4c3C[C@@H]2C(=O)N[C@@H](CC(C)C)C(N)=O)c1 [Example 39, N-[(3R)-2-(3-methylphenylcarbamoyl)-1,2,3,4-tetrahydro-9H-pyrido[3,4-b]indole-3-carboxy]-L-leucinamide] |
| 98 µM | Cc1cccc(NC(=O)N2Cc3[nH]c4ccccc4c3C[C@@H]2C(=O)N2CCC[C@H]2C(=O)N[C@@H](CC(=O)O)C(N)=O)c1 [Example 44, N-[(3R)-2-(3-methylphenylcarbamoyl)-1,2,3,4-tetrahydro-9H-pyrido[3,4-b]indole-3-carboxyl]-L-prolyl-L-aspartic acid amide] |
| 78 µM | Cc1cccc(NC(=O)N2Cc3[nH]c4ccccc4c3C[C@@H]2C(=O)N[C@H](CC(C)C)C(=O)N[C@H](CC(=O)O)C(N)=O)c1 [Example 45] |
| 35 µM | Cc1cccc(NC(=O)N2Cc3[nH]c4ccccc4c3C[C@H]2C(=O)N[C@H](CC(C)C)C(=O)N[C@H](CC(=O)O)C(N)=O)c1 [Example 49] |
| 100 µM | Cc1cccc(NC(=O)N2Cc3[nH]c4ccccc4c3C[C@@H]2C(=O)N[C@@H](CC(C)C)C(=O)N[C@H](CC(=O)O)C(N)=O)c1 [Example 51, N-[(3R)-2-(3-methylphenylcarbamoyl)-1,2,3,4-tetrahydro-9H-pyrido[3,4-b]indole-3-carboxyl]-L-leucyl-D-aspartic acid amide] |
| 53 µM | Cc1cccc(NC(=O)N2Cc3[nH]c4ccccc4c3C[C@H]2C(=O)N[C@H](CC(C)C)C(=O)N[C@@H](CC(=O)O)C(N)=O)c1 [Example 52] |
| 29 µM | Cc1cccc(NC(=O)N2Cc3[nH]c4ccccc4c3C[C@@H]2C(=O)N(C)[C@@H](CC(C)C)C(=O)N[C@@H](CC(=O)O)C(N)=O)c1 [Example 53, N-[(3R)-2-(3-methylphenylcarbamoyl)-1,2,3,4-tetrahydro-9H-pyrido[3,4-b]indole-3-carboxyl]N'-methyl-L-leucine-L-aspartic acid amide] |
| 34 µM | Cc1cccc(NC(=O)N2Cc3[nH]c4ccccc4c3C[C@@H]2C(=O)NCC(=O)N[C@@H](CC(=O)O)C(N)=O)c1 [Example 56, N-[(3R)-2-(3-methylphenylcarbamoyl)-1,2,3,4-tetrahydro-9H-pyido[3,4-b]indole-3-carboxyl]glycyl-L-aspartic acid amide] |
| 100 µM | Cc1cccc(NC(=O)N2Cc3[nH]c4ccccc4c3C[C@@H]2C(=O)N[C@H](CC(C)C)C(=O)N[C@@H](CC(=O)O)C(N)=O)c1 [Example 57, N-[(3R)-2-(3-methylphenylcarbamoyl)-1,2,3,4-tetrahydro-9H-pyrido[3,4-b]indole-3-carboxyl]-D-leucyl-L-aspartic acid amide] |
| 65 µM | Cc1cccc(NC(=O)N2Cc3[nH]c4ccccc4c3C[C@@H]2C(=O)N[C@@H](C)C(=O)N[C@@H](CC(=O)O)C(N)=O)c1 [Example 58] |
